Article PMC12406204 (Journal of Medicinal Chemistry, 2025)

How the values were obtained:
CB1R = CB1R (Homo sapiens, UniProt P21554); assay: CB1R radioligand binding competition ([3H]CP55,940); set-up: host or cells: CHO-CB1 C3 cell line; conditions: for CB1R % at 1 μM: percentage displacement of specific [3H]CP 55,940 binding at 1 μM, n = 2; for Ki: displacement of [3H]CP 55,940, membranes of CHO-CB1 C3 cells, n = 3
CB2R = CB2R (Homo sapiens, UniProt P34972); assay: CB2R radioligand binding competition ([3H]CP55,940); set-up: expressed in transfected cells; host or cells: HEK-293T (HEK-CB2 cell line); conditions: for Ki: displacement of [3H]CP 55,940, membranes of HEK-293T cells, n = 3; for SI Ki CB1R/Ki CB2R: selectivity index, affinity ratio; for CB2R % at 1 μM: percentage displacement of specific [3H]CP 55,940 binding at 1 μM, n = 2
Sequence of CB2R (P34972 whole entry): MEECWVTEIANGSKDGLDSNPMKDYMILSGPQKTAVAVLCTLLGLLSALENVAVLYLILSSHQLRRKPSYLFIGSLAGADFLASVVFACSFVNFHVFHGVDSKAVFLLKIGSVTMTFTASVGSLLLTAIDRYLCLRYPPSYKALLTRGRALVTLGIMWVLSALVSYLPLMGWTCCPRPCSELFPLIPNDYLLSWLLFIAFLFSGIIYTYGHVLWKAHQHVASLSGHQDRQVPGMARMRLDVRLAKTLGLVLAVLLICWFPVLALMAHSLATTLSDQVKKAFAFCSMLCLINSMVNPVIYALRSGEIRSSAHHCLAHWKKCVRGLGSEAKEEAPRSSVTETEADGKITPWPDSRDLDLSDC

Sequence of CB1R (P21554 whole entry): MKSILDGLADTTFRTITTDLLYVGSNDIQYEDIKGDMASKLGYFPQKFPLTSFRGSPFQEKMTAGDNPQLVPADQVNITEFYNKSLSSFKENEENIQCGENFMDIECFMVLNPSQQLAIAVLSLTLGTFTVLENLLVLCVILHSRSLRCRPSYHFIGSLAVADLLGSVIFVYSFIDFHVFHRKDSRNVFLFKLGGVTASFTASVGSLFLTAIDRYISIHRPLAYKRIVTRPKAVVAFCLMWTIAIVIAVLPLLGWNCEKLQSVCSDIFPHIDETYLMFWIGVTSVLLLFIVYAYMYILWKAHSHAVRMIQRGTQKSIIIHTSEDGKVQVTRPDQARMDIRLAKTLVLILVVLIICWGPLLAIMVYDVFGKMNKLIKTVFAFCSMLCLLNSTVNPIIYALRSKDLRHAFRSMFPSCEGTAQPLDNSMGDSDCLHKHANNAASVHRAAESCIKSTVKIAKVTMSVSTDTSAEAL

SMILES | CB1R % at 1 μM (CB1R) | Ki (CB2R) | SI Ki CB1R/Ki CB2R (CB2R) | Ki (CB1R) | CB2R % at 1 μM (CB2R)
NC(=O)[C@H]1CCCCN1C(=O)c1cn(Cc2ccc(F)cc2)c2ccccc12 [18h] | 3% | 207 ± 9 nM | >100 | – | –
COC(=O)[C@H]1CCCCN1C(=O)c1nn(Cc2ccc(F)cc2)c2ccccc12 [16p] | – | 48.4 ± 1.8 nM | >100 | – | –
CCc1c(C(=O)NN2CCCCC2)nn(-c2ccc(Cl)cc2Cl)c1-c1ccc(Br)cc1 [Surinabant, reference compound] | – | 400 ± 6 nM | 0.0075 | 3 ± 0.2 nM | –
NC(=O)[C@H]1CCCCN1C(=O)c1nn(CCCCCF)c2ccccc12 [18l] | 3% | 143 ± 5 nM | >100 | – | –
CCCCCn1nc(C(=O)N2CCC[C@H]2C(N)=O)c2ccccc21 [17i] | 2% | – | – | – | 31%
CCCCCn1cc(C(=O)N2CCCC[C@@H]2C(N)=O)c2ccccc21 [18b] | 10% | 136 ± 5 nM | >100 | – | –
CCCCCn1cc(C(=O)N2CCCC[C@H]2C(=O)OC)c2ccccc21 [16a] | – | 114 ± 6 nM | 6 | 644 ± 13 nM | –
NC(=O)[C@@H]1CCCN1C(=O)c1nn(Cc2ccc(F)cc2)c2ccccc12 [17o] | 4% | 628 ± 21 nM | >100 | – | –
COC(=O)[C@@H]1CCCN1C(=O)c1cn(CCCCCF)c2ccccc12 [15c] | – | 71.7 ± 2 nM | 0.8 | 55.9 ± 2.7 nM | –
COC(=O)[C@H]1CCCCN1C(=O)c1nn(CC2CCCCC2)c2ccccc12 [16n] | 3% | 164 ± 5 nM | >100 | – | –
NC(=O)[C@@H]1CCCN1C(=O)c1cn(CCCCCF)c2ccccc12 [17c] | 1% | – | – | – | 15%
COC(=O)[C@@H]1CCCN1C(=O)c1cn(CC2CCCCC2)c2ccccc12 [15e] | – | 38.3 ± 2.1 nM | 0.3 | 11.3 ± 0.5 nM | –
CCCCCn1cc(C(=O)N2CCC[C@@H]2C(=O)OC)c2ccccc21 [15b] | 4% | – | – | – | 25%
NC(=O)[C@@H]1CCCN1C(=O)c1nn(CC2CCCCC2)c2ccccc12 [17m] | 1% | – | – | – | 27%
NC(=O)[C@H]1CCCN1C(=O)c1cn(CCCCCF)c2ccccc12 [17d] | 5% | – | – | – | 16%
COC(=O)[C@H]1CCCCN1C(=O)c1cn(Cc2ccc(F)cc2)c2ccccc12 [16h] | 35% | 109 ± 4 nM | >100 | – | –
COC(=O)[C@H]1CCCN1C(=O)c1nn(Cc2ccc(F)cc2)c2ccccc12 [15p] | 5% | 157 ± 4 nM | >100 | – | –
COc1ccc2c(c1)c(CCN1CCOCC1)c(C)n2C(=O)c1cccc(Cl)c1Cl [GW405833, reference compound] | – | 5.8 ± 0.4 nM | 822 | 4770 ± 110 nM | –
NC(=O)[C@@H]1CCCCN1C(=O)c1cn(Cc2ccc(F)cc2)c2ccccc12 [18g] | 21% | 115 ± 5 nM | >100 | – | –
COC(=O)[C@H]1CCCN1C(=O)c1cn(CC2CCCCC2)c2ccccc12 [15f] | 32% | 463 ± 11 nM | >100 | – | –
COC(=O)[C@H]1CCCN1C(=O)c1nn(CC2CCCCC2)c2ccccc12 [15n] | 2% | 99.3 ± 2.8 nM | >100 | – | –
CCCCCn1nc(C(=O)N2CCC[C@@H]2C(N)=O)c2ccccc21 [17j] | 3% | – | – | – | 28%
COC(=O)[C@H]1CCCCN1C(=O)c1cn(CCCCCF)c2ccccc12 [16d] | 24% | 251 ± 7 nM | >100 | – | –
NC(=O)[C@H]1CCCN1C(=O)c1cn(Cc2ccc(F)cc2)c2ccccc12 [17h] | 4% | – | – | – | 7%
CCCCCn1cc(C(=O)N2CCCC[C@@H]2C(=O)OC)c2ccccc21 [16b] | 18% | 273 ± 4 nM | >100 | – | –
CCCCCn1nc(C(=O)N2CCC[C@H]2C(=O)OC)c2ccccc21 [15i] | – | 75.9 ± 2.2 nM | 4 | 337 ± 9 nM | –
CCCCCn1nc(C(=O)N2CCCC[C@H]2C(N)=O)c2ccccc21 [18i] | 2% | 91.8 ± 4.9 nM | >100 | – | –
CCCCCn1cc(C(=O)N2CCC[C@@H]2C(N)=O)c2ccccc21 [17b] | 3% | – | – | – | 17%
COC(=O)[C@@H]1CCCCN1C(=O)c1nn(Cc2ccc(F)cc2)c2ccccc12 [16o] | – | 4.1 ± 0.12 nM | 16 | 65.4 ± 2.4 nM | –
COC(=O)[C@@H]1CCCCN1C(=O)c1cn(CC2CCCCC2)c2ccccc12 [16e] | – | 45.1 ± 1.7 nM | 3 | 122 ± 8 nM | –
